Experimental data as given in patent publication US6525001B1, “Substituted pyrimidine and pyridine herbicides” (Mid-American Commercialization Corporation, priority 1997, dated 2003).

What was measured:
Assay in all cases: Test B pre-/postemergence
Type in all cases: in vivo
Design in all cases: key: 0 is no effect; 10 is complete control
[1] = test system: blackgrass (Alopecurus myosuroides)
Method in brief: (§1)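 Scored visually 0 (none) to 10 (complete control) against untreated plants after twelve to sixteen greenhouse days. Test chemicals, formulated in surfactant-containing non-phytotoxic solvent, applied to soil after planting and, separately, onto 1- to 4-leaf (2–18 cm) plants.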

[2] = test system: broadleaf signalgrass (Brachiaria decumbens)
Method in brief: as §1

[3] = test system: cocklebur (Xanthium strumarium)
Method in brief: as §1

corn (Zea mays) = test system: corn (Zea mays)
Method in brief: as §1

[4] = test system: crabgrass (Digitaria sanguinalis)
Method in brief: as §1

[5] = test system: giant foxtail (Setaria faberii)
Method in brief: as §1

[6] = test system: momingglory (Ipomoea hederacea)
Method in brief: as §1

[7] = test system: pigweed (Amaranthus retroflexus)
Method in brief: as §1

[8] = test system: purple nutsedge (Cyperus rotundus)
Method in brief: as §1

soybean (Glycine max) = test system: soybean (Glycine max)
Method in brief: as §1

[9] = test system: sugar beet (Beta vulgaris)
Method in brief: as §1

[10] = test system: velvetleaf (Abutilon theophrasti)
Method in brief: as §1

[11] = test system: wheat (Triticum aestivum)
Method in brief: as §1

wild oat (Avena fatua) = test system: wild oat (Avena fatua)
Method in brief: as §1

[12] = Preemergence, Rate 62 g/ha, scale of 0 to 10

Cc1cnc(-c2ccc(C(F)(F)F)cc2)nc1C(=O)c1cccc(C(F)(F)F)c1 [Compound 73]
Plant response rating, Blackgrass [1, 12]: 8
Blackgrass plant response rating ([1]; Rate 62 g/ha, Postemergence): 7
Blackgrass plant response rating ([1]; Rate 125 g/ha, Postemergence): 7
Plant response rating, Blackgrass ([1]; Rate 125 g/ha, Preemergence): 9
Plant response rating, Blackgrass ([1]; Rate 250 g/ha, Postemergence): 9
Plant response rating, Blackgrass ([1]; Rate 250 g/ha, Preemergence): 10
Plant response rating, Blackgrass ([1]; Rate 500 g/ha, Postemergence): 9
Plant response rating, Blackgrass ([1]; Rate 500 g/ha, Preemergence): 10
B. signalgrass plant response rating ([2]; Rate 62 g/ha, Postemergence): 8
B. signalgrass plant response rating ([2]; Rate 62 g/ha, Preemergence): 9
B. signalgrass plant response rating ([2]; Rate 125 g/ha, Postemergence): 9
Plant response rating, B. signalgrass ([2]; Rate 125 g/ha, Preemergence): 9
Plant response rating, B. signalgrass ([2]; Rate 250 g/ha, Postemergence): 9
Plant response rating, B. signalgrass ([2]; Rate 250 g/ha, Preemergence): 9
Plant response rating, B. signalgrass ([2]; Rate 500 g/ha, Postemergence): 8
Plant response rating, B. signalgrass ([2]; Rate 500 g/ha, Preemergence): 10
Plant response rating, Cocklebur [3, 12]: 0
Cocklebur plant response rating ([3]; Rate 62 g/ha, Postemergence): 9
Cocklebur plant response rating ([3]; Rate 125 g/ha, Postemergence): 9
Plant response rating, Cocklebur ([3]; Rate 125 g/ha, Preemergence): 1
Plant response rating, Cocklebur ([3]; Rate 250 g/ha, Postemergence): 9
Plant response rating, Cocklebur ([3]; Rate 250 g/ha, Preemergence): 7
Plant response rating, Cocklebur ([3]; Rate 500 g/ha, Postemergence): 8
Plant response rating, Corn (corn (Zea mays); [12]): 1
Corn plant response rating (corn (Zea mays); Rate 62 g/ha, Postemergence): 2
Corn plant response rating (corn (Zea mays); Rate 125 g/ha, Postemergence): 3
Plant response rating, Corn (corn (Zea mays); Rate 125 g/ha, Preemergence): 1
Plant response rating, Corn (corn (Zea mays); Rate 250 g/ha, Postemergence): 3
Plant response rating, Corn (corn (Zea mays); Rate 250 g/ha, Preemergence): 2
Plant response rating, Corn (corn (Zea mays); Rate 500 g/ha, Postemergence): 3
Plant response rating, Corn (corn (Zea mays); Rate 500 g/ha, Preemergence): 2
Plant response rating, Crabgrass [4, 12]: 10
Crabgrass plant response rating ([4]; Rate 62 g/ha, Postemergence): 7
Crabgrass plant response rating ([4]; Rate 125 g/ha, Postemergence): 9
Plant response rating, Crabgrass ([4]; Rate 125 g/ha, Preemergence): 10
Plant response rating, Crabgrass ([4]; Rate 250 g/ha, Postemergence): 9
Plant response rating, Crabgrass ([4]; Rate 250 g/ha, Preemergence): 10
Plant response rating, Crabgrass ([4]; Rate 500 g/ha, Postemergence): 9
Plant response rating, Crabgrass ([4]; Rate 500 g/ha, Preemergence): 10
Plant response rating, Giant foxtail [5, 12]: 10
Giant foxtail plant response rating ([5]; Rate 62 g/ha, Postemergence): 6
Giant foxtail plant response rating ([5]; Rate 125 g/ha, Postemergence): 8
Plant response rating, Giant foxtail ([5]; Rate 125 g/ha, Preemergence): 10
Plant response rating, Giant foxtail ([5]; Rate 250 g/ha, Postemergence): 9
Plant response rating, Giant foxtail ([5]; Rate 250 g/ha, Preemergence): 10
Plant response rating, Giant foxtail ([5]; Rate 500 g/ha, Postemergence): 9
Plant response rating, Giant foxtail ([5]; Rate 500 g/ha, Preemergence): 10
Plant response rating, Morningglory [6, 12]: 3
Morningglory plant response rating ([6]; Rate 62 g/ha, Postemergence): 9
Morningglory plant response rating ([6]; Rate 125 g/ha, Postemergence): 9
Plant response rating, Morningglory ([6]; Rate 125 g/ha, Preemergence): 9
Plant response rating, Morningglory ([6]; Rate 250 g/ha, Postemergence): 9
Plant response rating, Morningglory ([6]; Rate 250 g/ha, Preemergence): 9
Plant response rating, Morningglory ([6]; Rate 500 g/ha, Postemergence): 10
Plant response rating, Morningglory ([6]; Rate 500 g/ha, Preemergence): 10
Plant response rating, Redroot pigweed [7, 12]: 9
Redroot pigweed plant response rating ([7]; Rate 62 g/ha, Postemergence): 9
Redroot pigweed plant response rating ([7]; Rate 125 g/ha, Postemergence): 9
Plant response rating, Redroot pigweed ([7]; Rate 125 g/ha, Preemergence): 10
Plant response rating, Redroot pigweed ([7]; Rate 250 g/ha, Postemergence): 10
Plant response rating, Redroot pigweed ([7]; Rate 250 g/ha, Preemergence): 10
Plant response rating, Redroot pigweed ([7]; Rate 500 g/ha, Postemergence): 10
Plant response rating, Redroot pigweed ([7]; Rate 500 g/ha, Preemergence): 10
Plant response rating, Nutsedge [8, 12]: 0
Nutsedge plant response rating ([8]; Rate 62 g/ha, Postemergence): 0
Nutsedge plant response rating ([8]; Rate 125 g/ha, Postemergence): 0
Plant response rating, Nutsedge ([8]; Rate 125 g/ha, Preemergence): 0
Plant response rating, Nutsedge ([8]; Rate 250 g/ha, Postemergence): 2
Plant response rating, Nutsedge ([8]; Rate 250 g/ha, Preemergence): 0
Plant response rating, Nutsedge ([8]; Rate 500 g/ha, Preemergence): 0
Plant response rating, Soybean (soybean (Glycine max); [12]): 0
Soybean plant response rating (soybean (Glycine max); Rate 62 g/ha, Postemergence): 8
Soybean plant response rating (soybean (Glycine max); Rate 125 g/ha, Postemergence): 9
Plant response rating, Soybean (soybean (Glycine max); Rate 125 g/ha, Preemergence): 1
Plant response rating, Soybean (soybean (Glycine max); Rate 250 g/ha, Postemergence): 9
Plant response rating, Soybean (soybean (Glycine max); Rate 250 g/ha, Preemergence): 1
Plant response rating, Soybean (soybean (Glycine max); Rate 500 g/ha, Postemergence): 6
Plant response rating, Soybean (soybean (Glycine max); Rate 500 g/ha, Preemergence): 2
Plant response rating, Sugarbeets [9, 12]: 9
Sugarbeets plant response rating ([9]; Rate 62 g/ha, Postemergence): 10
Sugarbeets plant response rating ([9]; Rate 125 g/ha, Postemergence): 10
Plant response rating, Sugarbeets ([9]; Rate 125 g/ha, Preemergence): 9
Plant response rating, Sugarbeets ([9]; Rate 250 g/ha, Postemergence): 9
Plant response rating, Sugarbeets ([9]; Rate 250 g/ha, Preemergence): 10
Plant response rating, Sugarbeets ([9]; Rate 500 g/ha, Postemergence): 9
Plant response rating, Sugarbeets ([9]; Rate 500 g/ha, Preemergence): 10
Plant response rating, Velvetleaf [10, 12]: 2
Velvetleaf plant response rating ([10]; Rate 62 g/ha, Postemergence): 9
Velvetleaf plant response rating ([10]; Rate 125 g/ha, Postemergence): 9
Plant response rating, Velvetleaf ([10]; Rate 125 g/ha, Preemergence): 4
Plant response rating, Velvetleaf ([10]; Rate 250 g/ha, Postemergence): 9
Plant response rating, Velvetleaf ([10]; Rate 250 g/ha, Preemergence): 7
Plant response rating, Velvetleaf ([10]; Rate 500 g/ha, Postemergence): 10
Plant response rating, Velvetleaf ([10]; Rate 500 g/ha, Preemergence): 8
Plant response rating, Wheat [11, 12]: 2
Wheat plant response rating ([11]; Rate 62 g/ha, Postemergence): 4
Wheat plant response rating ([11]; Rate 125 g/ha, Postemergence): 4
Plant response rating, Wheat ([11]; Rate 125 g/ha, Preemergence): 4
Plant response rating, Wheat ([11]; Rate 250 g/ha, Postemergence): 5
Plant response rating, Wheat ([11]; Rate 250 g/ha, Preemergence): 7
Plant response rating, Wheat ([11]; Rate 500 g/ha, Postemergence): 6
Plant response rating, Wheat ([11]; Rate 500 g/ha, Preemergence): 9
Plant response rating, Wild oats (wild oat (Avena fatua); [12]): 7
Wild oats plant response rating (wild oat (Avena fatua); Rate 62 g/ha, Postemergence): 6
Wild oats plant response rating (wild oat (Avena fatua); Rate 125 g/ha, Postemergence): 7
Plant response rating, Wild oats (wild oat (Avena fatua); Rate 125 g/ha, Preemergence): 9
Plant response rating, Wild oats (wild oat (Avena fatua); Rate 250 g/ha, Postemergence): 9
Plant response rating, Wild oats (wild oat (Avena fatua); Rate 250 g/ha, Preemergence): 10
Plant response rating, Wild oats (wild oat (Avena fatua); Rate 500 g/ha, Postemergence): 9
Plant response rating, Wild oats (wild oat (Avena fatua); Rate 500 g/ha, Preemergence): 10
